# Assay results as given in PubChem BioAssay (NCI).
#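 96-well plates; 48 h exposure; 5 concentrations. Endpoints by linear interpolation between flanking doses. Not reached: highest tested concentration assigned. GI50: concentration for 50% inhibition of growth. The concentration for full growth arrest is given as TGI.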
# Assays:
# Test in all cases: NCI tumour cell line growth inhibition, 48 h
# EKVX NSCLC = test system: EKVX NSCLC
# UO-31 renal = test system: UO-31 renal
# SK-MEL-28 melanoma = test system: SK-MEL-28 melanoma
# ACHN renal = test system: ACHN renal
# UACC-62 melanoma = test system: UACC-62 melanoma
# OVCAR-5 ovarian = test system: OVCAR-5 ovarian
# SF-539 CNS = test system: SF-539 CNS
# BT-549 breast = test system: BT-549 breast
# HL-60(TB) leukemia = test system: HL-60(TB) leukemia
# TK-10 renal = test system: TK-10 renal
# KM12 colon = test system: KM12 colon
# U251 CNS = test system: U251 CNS
# HCT-15 colon = test system: HCT-15 colon
# NCI-H460 lung = test system: NCI-H460 lung
# RXF 393 renal = test system: RXF 393 renal
# CAKI-1 renal = test system: CAKI-1 renal
# SNB-19 CNS = test system: SNB-19 CNS
# MDA-MB-435 = test system: MDA-MB-435
# OVCAR-3 ovarian = test system: OVCAR-3 ovarian
# MOLT-4 leukemia = test system: MOLT-4 leukemia
# K-562 leukemia = test system: K-562 leukemia
# HT29 colon = test system: HT29 colon
# NCI/ADR-RES ovarian = test system: NCI/ADR-RES ovarian
# SN12C renal = test system: SN12C renal
# NCI-H226 lung = test system: NCI-H226 lung
# SNB-75 CNS = test system: SNB-75 CNS
# HOP-92 NSCLC = test system: HOP-92 NSCLC
# SW-620 colon = test system: SW-620 colon
# SK-OV-3 ovarian = test system: SK-OV-3 ovarian
# LOX IMVI melanoma = test system: LOX IMVI melanoma
# HS 578T breast = test system: HS 578T breast
# OVCAR-4 ovarian = test system: OVCAR-4 ovarian
# NCI-H522 lung = test system: NCI-H522 lung
# SF-268 CNS = test system: SF-268 CNS
# HCT-116 colon = test system: HCT-116 colon
# IGROV1 ovarian = test system: IGROV1 ovarian
# MCF7 breast = test system: MCF7 breast
# OVCAR-8 ovarian = test system: OVCAR-8 ovarian
# NCI-H23 lung = test system: NCI-H23 lung
# HOP-62 NSCLC = test system: HOP-62 NSCLC
# A498 renal = test system: A498 renal
# T-47D breast = test system: T-47D breast
# MDA-MB-231 breast = test system: MDA-MB-231 breast
# COLO 205 colon = test system: COLO 205 colon
# CCRF-CEM leukemia = test system: CCRF-CEM leukemia
# SK-MEL-2 melanoma = test system: SK-MEL-2 melanoma
# 786-0 renal = test system: 786-0 renal
# PC-3 prostate = test system: PC-3 prostate
# SK-MEL-5 melanoma = test system: SK-MEL-5 melanoma
# HCC-2998 colon = test system: HCC-2998 colon
# UACC-257 melanoma = test system: UACC-257 melanoma
# SR leukemia = test system: SR leukemia
# MALME-3M melanoma = test system: MALME-3M melanoma
# DU-145 prostate = test system: DU-145 prostate
# M14 melanoma = test system: M14 melanoma
# RPMI-8226 leukemia = test system: RPMI-8226 leukemia
# A549 NSCLC = test system: A549 NSCLC
# SF-295 CNS = test system: SF-295 CNS
smiles,measurement,setting,value
Cc1c(C#N)c2nnn(-c3ccc(Cl)cc3)c(=O)n2c1-c1ccccc1,TGI,EKVX NSCLC,31.3 µM
same,TGI,UO-31 renal,> 51.3 µM
same,TGI,SK-MEL-28 melanoma,> 51.7 µM
same,TGI,ACHN renal,83.4 µM
same,TGI,UACC-62 melanoma,18.5 µM
same,TGI,OVCAR-5 ovarian,32.1 µM
same,TGI,SF-539 CNS,0.6 µM
same,TGI,BT-549 breast,24.9 µM
same,TGI,HL-60(TB) leukemia,> 57.3 µM
same,TGI,TK-10 renal,55 µM
same,TGI,KM12 colon,11.6 µM
same,TGI,U251 CNS,3 µM
same,TGI,HCT-15 colon,11.9 µM
same,TGI,NCI-H460 lung,3.71 µM
same,TGI,RXF 393 renal,3.76 µM
same,TGI,CAKI-1 renal,> 52.3 µM
same,TGI,SNB-19 CNS,> 40.5 µM
same,TGI,MDA-MB-435,0.154 µM
same,TGI,OVCAR-3 ovarian,0.772 µM
same,TGI,MOLT-4 leukemia,42.3 µM
same,TGI,K-562 leukemia,20.1 µM
same,TGI,HT29 colon,0.49 µM
same,TGI,NCI/ADR-RES ovarian,16 µM
same,TGI,SN12C renal,3.85 µM
same,TGI,NCI-H226 lung,2.02 µM
same,TGI,SNB-75 CNS,39.7 µM
same,TGI,HOP-92 NSCLC,25.7 µM
same,TGI,SW-620 colon,31.4 µM
same,TGI,SK-OV-3 ovarian,30 µM
same,TGI,LOX IMVI melanoma,12.9 µM
same,TGI,HS 578T breast,> 56.3 µM
same,TGI,OVCAR-4 ovarian,> 59.3 µM
same,TGI,NCI-H522 lung,0.207 µM
same,TGI,SF-268 CNS,14.8 µM
same,TGI,HCT-116 colon,10.9 µM
same,TGI,IGROV1 ovarian,16.9 µM
same,TGI,MCF7 breast,19.5 µM
same,TGI,OVCAR-8 ovarian,11.2 µM
same,TGI,NCI-H23 lung,19.8 µM
same,TGI,HOP-62 NSCLC,3.73 µM
same,TGI,A498 renal,3.92 µM
same,TGI,T-47D breast,45.2 µM
same,TGI,MDA-MB-231 breast,0.987 µM
same,TGI,COLO 205 colon,0.319 µM
same,TGI,CCRF-CEM leukemia,> 100 µM
same,TGI,SK-MEL-2 melanoma,2.99 µM
same,TGI,786-0 renal,7.59 µM
same,TGI,PC-3 prostate,9.12 µM
same,TGI,SK-MEL-5 melanoma,1.3 µM
same,TGI,HCC-2998 colon,0.201 µM
same,TGI,UACC-257 melanoma,33.6 µM
same,TGI,SR leukemia,> 56.6 µM
same,TGI,MALME-3M melanoma,34.4 µM
same,TGI,DU-145 prostate,8.44 µM
same,TGI,M14 melanoma,14 µM
same,TGI,RPMI-8226 leukemia,> 30.6 µM
same,TGI,A549 NSCLC,> 40.3 µM
same,TGI,SF-295 CNS,1.03 µM
C=CC[n+]1c(/C=C/C=C2\N(C)c3ccccc3C2(C)C)sc2ccc(OC)cc21,GI50,EKVX NSCLC,0.264 µM
same,TGI,EKVX NSCLC,15.5 µM
same,GI50,UO-31 renal,1.53 µM
same,TGI,UO-31 renal,8.82 µM
same,GI50,SK-MEL-28 melanoma,0.464 µM
same,TGI,SK-MEL-28 melanoma,4.79 µM
same,GI50,ACHN renal,1.65 µM
same,TGI,ACHN renal,10.9 µM
same,GI50,UACC-62 melanoma,0.195 µM
same,TGI,UACC-62 melanoma,2.65 µM
same,GI50,OVCAR-5 ovarian,0.504 µM
same,TGI,OVCAR-5 ovarian,14.9 µM
same,GI50,SF-539 CNS,0.329 µM
same,TGI,SF-539 CNS,13.9 µM
same,GI50,BT-549 breast,0.149 µM
same,TGI,BT-549 breast,2.99 µM
same,GI50,HL-60(TB) leukemia,0.156 µM
same,TGI,HL-60(TB) leukemia,0.732 µM
same,GI50,TK-10 renal,0.235 µM
same,TGI,TK-10 renal,14.8 µM
same,GI50,KM12 colon,0.249 µM
same,TGI,KM12 colon,11.7 µM
same,GI50,U251 CNS,0.293 µM
same,TGI,U251 CNS,14.4 µM
same,GI50,HCT-15 colon,2.82 µM
same,TGI,HCT-15 colon,16.4 µM
same,GI50,NCI-H460 lung,0.199 µM
same,TGI,NCI-H460 lung,12.1 µM
same,GI50,RXF 393 renal,0.431 µM
same,TGI,RXF 393 renal,13.7 µM
same,GI50,SNB-19 CNS,0.289 µM
same,TGI,SNB-19 CNS,14.4 µM
same,GI50,MDA-MB-435,0.256 µM
same,TGI,MDA-MB-435,10.6 µM
same,GI50,OVCAR-3 ovarian,0.176 µM
same,TGI,OVCAR-3 ovarian,22.2 µM
same,GI50,MOLT-4 leukemia,0.309 µM
same,TGI,MOLT-4 leukemia,5.73 µM
same,GI50,K-562 leukemia,0.165 µM
same,TGI,K-562 leukemia,12.8 µM
same,GI50,HT29 colon,0.272 µM
same,TGI,HT29 colon,6.05 µM
same,GI50,NCI/ADR-RES ovarian,7.76 µM
same,TGI,NCI/ADR-RES ovarian,69.2 µM
same,GI50,SN12C renal,0.283 µM
same,TGI,SN12C renal,11.8 µM
same,GI50,NCI-H226 lung,0.282 µM
same,TGI,NCI-H226 lung,13 µM
same,GI50,SNB-75 CNS,0.283 µM
same,TGI,SNB-75 CNS,14.1 µM
same,GI50,HOP-92 NSCLC,0.201 µM
same,TGI,HOP-92 NSCLC,1.61 µM
same,GI50,SW-620 colon,0.34 µM
same,TGI,SW-620 colon,14.3 µM
same,GI50,SK-OV-3 ovarian,0.21 µM
same,TGI,SK-OV-3 ovarian,0.769 µM
same,GI50,LOX IMVI melanoma,0.313 µM
same,TGI,LOX IMVI melanoma,15.1 µM
same,GI50,HS 578T breast,0.465 µM
same,TGI,HS 578T breast,25.4 µM
same,GI50,OVCAR-4 ovarian,0.114 µM
same,TGI,OVCAR-4 ovarian,28.5 µM
same,GI50,NCI-H522 lung,0.133 µM
same,TGI,NCI-H522 lung,2.6 µM
same,GI50,SF-268 CNS,0.321 µM
same,TGI,SF-268 CNS,19.6 µM
same,GI50,HCT-116 colon,0.159 µM
same,TGI,HCT-116 colon,11.9 µM
same,GI50,IGROV1 ovarian,0.521 µM
same,TGI,IGROV1 ovarian,21.6 µM
same,GI50,MCF7 breast,0.157 µM
same,TGI,MCF7 breast,11.4 µM
same,GI50,OVCAR-8 ovarian,0.327 µM
same,TGI,OVCAR-8 ovarian,33.8 µM
same,GI50,NCI-H23 lung,0.0761 µM
same,TGI,NCI-H23 lung,12.9 µM
same,GI50,HOP-62 NSCLC,0.291 µM
same,TGI,HOP-62 NSCLC,11.9 µM
same,GI50,A498 renal,0.278 µM
same,TGI,A498 renal,4.37 µM
same,GI50,T-47D breast,0.0231 µM
same,TGI,T-47D breast,0.561 µM
same,GI50,MDA-MB-231 breast,0.272 µM
same,TGI,MDA-MB-231 breast,1.65 µM
same,GI50,COLO 205 colon,0.188 µM
same,TGI,COLO 205 colon,0.591 µM
same,GI50,CCRF-CEM leukemia,0.287 µM
same,TGI,CCRF-CEM leukemia,12.7 µM
same,GI50,SK-MEL-2 melanoma,0.27 µM
same,TGI,SK-MEL-2 melanoma,5.22 µM
same,GI50,786-0 renal,0.363 µM
same,TGI,786-0 renal,18.8 µM
same,GI50,PC-3 prostate,0.215 µM
same,TGI,PC-3 prostate,12.2 µM
same,GI50,SK-MEL-5 melanoma,0.0615 µM
same,TGI,SK-MEL-5 melanoma,0.239 µM
same,GI50,HCC-2998 colon,0.258 µM
same,TGI,HCC-2998 colon,21.3 µM
same,GI50,UACC-257 melanoma,0.197 µM
same,TGI,UACC-257 melanoma,0.733 µM
same,GI50,SR leukemia,0.101 µM
same,TGI,SR leukemia,7.12 µM
same,GI50,MALME-3M melanoma,0.188 µM
same,TGI,MALME-3M melanoma,0.733 µM
same,GI50,DU-145 prostate,0.34 µM
same,TGI,DU-145 prostate,15.6 µM
same,GI50,M14 melanoma,0.331 µM
same,TGI,M14 melanoma,2.59 µM
same,GI50,RPMI-8226 leukemia,0.0692 µM
same,TGI,RPMI-8226 leukemia,0.705 µM
same,GI50,A549 NSCLC,0.279 µM
same,TGI,A549 NSCLC,16.1 µM
same,GI50,SF-295 CNS,0.18 µM
same,TGI,SF-295 CNS,3 µM
